This passage reports IC50 results from patent US10752617B2 (GALDERMA RESEARCH & DEVELOPMENT, priority 2014, dated 2020).

The test has as its target T1, GAL4-RORγ (GAL4 DBD fused to the ROR gamma ligand-binding domain) (Homo sapiens, UniProt P51449).
T1 construct: expressed in transfected cells; host or cells: HG5LN (HeLa line with GAL4-responsive luciferase reporter)
T1 sequence (P51449 269-508 limits assumed): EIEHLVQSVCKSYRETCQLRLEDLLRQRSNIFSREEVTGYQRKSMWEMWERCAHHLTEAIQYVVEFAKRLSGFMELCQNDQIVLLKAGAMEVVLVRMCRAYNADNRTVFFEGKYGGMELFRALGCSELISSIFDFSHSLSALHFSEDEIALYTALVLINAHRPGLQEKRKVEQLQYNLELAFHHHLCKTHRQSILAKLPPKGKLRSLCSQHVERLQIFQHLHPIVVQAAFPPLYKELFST
As to the kind of experiment: GAL4-RORγ transactivation (luciferase reporter, HG5LN HeLa line). The note with it: HG5LN HeLa cells, 18 hours incubation, luciferase luminescence, read-out: IC50 hRORg. The format is cell-based. An excerpt: In the tables described above, the median inhibitory concentrations IC50 for the compounds belonging to formula (I) according to the invention have been given according to the following models:
GAL4-RORγ Transactivation
The RORγ transactivation model was developed from the line HG5LN, which is a HeLa line that stably expresses a luciferase reporter gene controlled by a pentamer of the GAL4 recognition domain of yeast and of a β-globin promoter. The HG5LN line was stably transfected by the DNA-binding domain (DBD) of GAL4 fused to the ROR gamma ligand-binding domain (LBD). Molecules that inhibit the ROR gamma constitutive activity reduce the luciferase expression, thus leading to a reduction in the emitted luminescence.
The cells are seeded in 384-well plates (5000 cells in 45 μL/well of culture medium containing 10% fetal calf serum) and incubated for 4 hours at 37° C., 5% CO2. 5 μL of the test molecules (compounds described in the tables described above) are then added to each well and the plates are incubated for 18 hours at a temperature of 37° C. under 5% of CO2. 20 μL of luciferase substrate (Promega) are added to each well and the luminescence emitted is read by a microplate reader.
The luminescence units (“RLU”) are normalized by positive controls (“POS” containing a saturated concentration of N-(2,2,2-trifluoroethyl)-N-[4-[2,2,2-trifluoro-1-hydroxy-1-(trifluoromethyl)ethyl]phenyl])benzenesulfonamide and negative controls (“NEG” containing DMSO): % inhibition=((RLU−NEG)*100)/(POS−NEG). The IC50 values are calculated from a 4-parameter logistic model using the XLFit software (IDBS).

With `CCc1ccc(N(CC(C)C)S(=O)(=O)c2ccc3c(c2)c(CO)nn3CC2CCOCC2)cc1` [Compound 14, 3-hydroxymethyl-1-(tetrahydropyran-4-ylmethyl)-1H-indazole-5-sulfonic acid (4-ethylphenyl)isobutylamide], the IC50 is more than 1 µM.

On to `COc1ccc(N(CC(C)C)S(=O)(=O)c2ccc3c(cnn3CC3CCOCC3)c2)c(C)c1` [Compound 55, 1-(tetrahydropyran-4-ylmethyl)-1H-indazole-5-sulfonic acid isobutyl(4-methoxy-2-methylphenyl)amide], for which the IC50 lay in the range of 0.1 to 1 µM.

As to `CC(C)CN(Cc1cccc(Cl)c1)S(=O)(=O)c1ccc2c(cnn2CC2CCOCC2)c1` [Compound 51, 1-(tetrahydropyran-4-ylmethyl)-1H-indazole-5-sulfonic acid (3-chlorobenzyl)isobutylamide], the IC50 was more than 1 µM.

With `CCc1ccc(N(CC(C)C)S(=O)(=O)c2ccc3c(cnn3CC3CCN(C(C)=O)C3)c2)cc1` (stereo not shown) [Compound 20, 1-((1-acetylpyrrolidin-3-yl)methyl)-N-(4-ethylphenyl)-N-isobutyl-1H-indazole-5-sulfonamide], the IC50 was more than 1 µM.

Take `Cc1ccc(F)cc1N(CC(C)C)S(=O)(=O)c1ccc2c(cnn2CC2CCOCC2)c1` [Compound 42, 1-(tetrahydropyran-4-ylmethyl)-1H-indazole-5-sulfonic acid (5-fluoro-2-methylphenyl)isobutylamide]: the IC50 was in the range of 0.1 to 1 µM.

As for `CCc1ccc(N(C(C)CC)S(=O)(=O)c2ccc3c(cnn3CC3CCOCC3)c2)cc1` (stereo not shown) [Compound 30, 1-(tetrahydropyran-4-ylmethyl)-1H-indazole-5-sulfonic acid sec-butyl(4-ethylphenyl)amide], the IC50 fell in the range of 0.1 to 1 µM.

For the molecule `CCc1ccc(N(CC2CCC2)S(=O)(=O)c2ccc3c(cnn3CC3CCOCC3)c2)cc1` [Compound 24, N-(cyclobutylmethyl)-N-(4-ethylphenyl)-1-((tetrahydro-2H-pyran-4-yl)methyl)-1H-indazole-5-sulfonamide], the IC50 was in the range of 0.1 to 1 µM.

For `Cc1cc(F)ccc1N(CC(C)C)S(=O)(=O)c1ccc2c(cnn2CC2CCOCC2)c1` [Compound 54, 1-(tetrahydropyran-4-ylmethyl)-1H-indazole-5-sulfonic acid (4-fluoro-2-methylphenyl)isobutylamide], the IC50 was in the range of 0.1 to 1 µM.

Consider `CCc1ccc(N(CC(C)C)S(=O)(=O)c2ccc3c(Br)nn(C4CCCCO4)c3c2)cc1` (stereo not shown) [Compound 4, 3-bromo-1-(tetrahydropyran-2-yl)-1H-indazole-6-sulfonic acid (4-ethylphenyl)isobutylamide], for which the IC50 is more than 1 µM.

Turning to `CC(C)CN(Cc1ccccc1C(F)(F)F)S(=O)(=O)c1ccc2c(cnn2CC2CCOCC2)c1` [Compound 52, 1-(tetrahydropyran-4-ylmethyl)-1H-indazole-5-sulfonic acid isobutyl(2-trifluoromethylbenzyl)amide], the IC50 was in the range of 0.1 to 1 µM.

Take `CCc1ccc(N(CC(C)C)S(=O)(=O)c2ccc3c(cnn3C3CCOCC3)c2)cc1` [Compound 38, 1-(tetrahydropyran-4-yl)-1H-indazole-5-sulfonic acid (4-ethylphenyl)isobutylamide]: the half-maximal inhibitory concentration (IC50) is more than 1 µM.

For `CCc1ccc(N(C2CCCC2)S(=O)(=O)c2ccc3c(cnn3CC3CCOCC3)c2)cc1` [Compound 32, 1-(tetrahydropyran-4-ylmethyl)-1H-indazole-5-sulfonic acid cyclopentyl(4-ethylphenyl)amide], the IC50 was less than 0.1 µM.

Regarding `Cc1cc(C#N)ccc1N(CC(C)C)S(=O)(=O)c1ccc2c(cnn2CC2CCOCC2)c1` [Compound 57, 1-(tetrahydropyran-4-ylmethyl)-1H-indazole-5-sulfonic acid (4-cyano-2-methylphenyl)isobutylamide], the IC50 fell in the range of 0.1 to 1 µM.

In the case of `CC(C)CN(c1cc(Cl)ccc1F)S(=O)(=O)c1ccc2c(cnn2CC2CCOCC2)c1` [Compound 10, 1-(tetrahydropyran-4-ylmethyl)-1H-indazole-5-sulfonic acid (5-chloro-2-fluorophenyl)isobutylamide], the IC50 was more than 1 µM.

For `CC(C)CN(c1ccccc1C(F)(F)F)S(=O)(=O)c1ccc2c(cnn2CC2CCOCC2)c1` [Compound 58, 1-(tetrahydropyran-4-ylmethyl)-1H-indazole-5-sulfonic acid isobutyl(2-trifluoromethylphenyl)amide], the IC50 lay within 0.1 to 1 µM.

`CC(C)CN(c1cccc(Cl)c1)S(=O)(=O)c1ccc2c(cnn2CC2CCOCC2)c1` [Compound 44, 1-(tetrahydropyran-4-ylmethyl)-1H-indazole-5-sulfonic acid (5-chlorophenyl)isobutylamide]: the IC50 was more than 1 µM.

Regarding `CCc1ccc(N(CC(C)C)S(=O)(=O)c2ccc3c(cnn3CC3CCCOC3)c2)cc1` (stereo not shown) [Compound 22, N-(4-ethylphenyl)-N-isobutyl-1-((tetrahydro-2H-pyran-3-yl)methyl)-1H-indazole-5-sulfonamide], the IC50 is more than 1 µM.

As to `CCc1ccc(N(CC(C)C)S(=O)(=O)c2ccc3[nH]nc(OCC4CCOCC4)c3c2)cc1` [Compound 61, 3-(tetrahydropyran-4-ylmethoxy)-1H-indazole-5-sulfonic acid (4-ethylphenyl)isobutylamide], the IC50 was more than 1 µM.

As for `CCc1ccc(N(CC(C)C)S(=O)(=O)c2ccc3c(cnn3CC3CN(C(C)=O)C3)c2)cc1` [Compound 19], the half-maximal inhibitory concentration (IC50) was more than 1 µM.

Turning to `Cc1ccc(C)c(N(CC(C)C)S(=O)(=O)c2ccc3c(cnn3CC3CCOCC3)c2)c1` [Compound 11, 1-(tetrahydropyran-4-ylmethyl)-1H-indazole-5-sulfonic acid (2,5-dimethylphenyl)isobutylamide], the IC50 is 0.1 to 1 µM.

With `CCc1ccc(N(CC(C)C)S(=O)(=O)c2ccc3c(CN4CCOC[C@@H]4C)n[nH]c3c2)cc1` [Compound 66, 3-((S)-3-methylmorpholin-4-ylmethyl)-1H-indazole-6-sulfonic acid (4-ethylphenyl)isobutylamide], the IC50 was in the range of 0.1 to 1 µM.

For the molecule `CCc1ccc(N(CC(C)C)S(=O)(=O)c2ccc3c(cnn3CC3CCOC3)c2)cc1` (stereo not shown) [Compound 21, N-(4-ethylphenyl)-N-isobutyl-1-((tetrahydrofuran-3-yl)methyl)-1H-indazole-5-sulfonamide], the IC50 was more than 1 µM.

`CCc1ccc(N(C(C)C)S(=O)(=O)c2ccc3c(cnn3CC3CCOCC3)c2)cc1` [Compound 29, N-(4-ethylphenyl)-N-isopropyl-1-((tetrahydro-2H-pyran-4-yl)methyl)-1H-indazole-5-sulfonamide]: the IC50 is more than 1 µM.

For the molecule `CCc1ccc(N(CC(CO)CCl)S(=O)(=O)c2ccc3c(cnn3CC3CCOCC3)c2)cc1` (stereo not shown) [Compound 60, 1-(tetrahydropyran-4-ylmethyl)-1H-indazole-5-sulfonic acid (3-chloro-2-hydroxymethylpropyl)(4-ethylphenyl)amide], the IC50 was more than 1 µM.

With `CC(C)CN(c1ccc(F)cc1)S(=O)(=O)c1ccc2c(cnn2CC2CCOCC2)c1` [Compound 46, 1-(tetrahydropyran-4-ylmethyl)-1H-indazole-5-sulfonic acid (4-fluorophenyl)isobutylamide], the IC50 was more than 1 µM.

Take `Cc1cccc(F)c1N(CC(C)C)S(=O)(=O)c1ccc2c(cnn2CC2CCOCC2)c1` [Compound 53, 1-(tetrahydropyran-4-ylmethyl)-1H-indazole-5-sulfonic acid (2-fluoro-6-methylphenyl)isobutylamide]: the IC50 was more than 1 µM.

Turning to `CCc1ccc(N(CC(C)C)S(=O)(=O)c2ccc3c(CN4C[C@@H](C)O[C@@H](C)C4)n[nH]c3c2)cc1` [Compound 65, 3-((cis)-2,6-dimethylmorpholin-4-ylmethyl)-1H-indazole-6-sulfonic acid (4-ethylphenyl)isobutylamide], the IC50 was more than 1 µM.

On to `CCCN(c1ccc(CC)cc1)S(=O)(=O)c1ccc2c(cnn2CC2CCOCC2)c1` [Compound 8, 1-(tetrahydropyran-4-ylmethyl)-1H-indazole-5-sulfonic acid (4-ethylphenyl)propyl], for which the IC50 was more than 1 µM.

For orientation: IC50 means the concentration at which inhibition is half-maximal.
